Legend:
[1] = tested on: LNCaP tumor-bearing CB-17 SCID mice; assay: Biodistribution in LNCaP tumor-bearing SCID mice, 1 h p.i., with or without PMPA
Description: To establish tumor xenografts, LNCaP cells (10^7 cells/200 μL) were suspended in a 1:1 mixture (v/v) of Dulbecco modified Eagle medium/Nutrition Mixture F-12 with Glutamax-I (1:1) and Matrigel (BD Biosciences, Germany), and inoculated subcutaneously onto the right shoulder of 6-8 weeks old CB17-SCID mice (Charles River, Sulzfeld, Germany). Mice were used for when tumors had grown to a diameter of 5-8 mm (3-4 weeks after inoculation).
Approximately 1-2 MBq (<0.2 nmol) of the ^18F-labeled PSMA inhibitor was injected into the tail vein of LNCaP tumor-bearing male CB-17 SCID mice and sacrificed after 1 h post injection (n=4-5). Selected organs were removed, weighted and measured in a γ-counter

[2] = Metabolic stability and 18F/19F isotopic exchange in mouse urine (radio-HPLC, radio-TLC); type: in vitro ADME, mice
Description: Analytical reversed-phase high pressure chromatography (RP-HPLC) were performed using Shimadzu gradient systems (Shimadzu Deutschland GmbH, Neufahrn, Germany), equipped with a SPD-20A UV/Vis detector (220 nm, 254 nm). […] Eluents for all HPLC operations were water (solvent A) and acetonitrile (solvent B), both containing 0.1% trifluoroacetic acid. […] The gradient for all HPLC operations was: 5% B isocratic 0-3 min, 25-35% B 3-43 min, 95-95% B 43-48 min.
For radio-thin-layer chromatography, aluminum sheets coated with silica gel 60 RP-18 F254s were used with a mobile phase consisting of a 3:2 mixture (v/v) of MeCN in H2O supplemented with 10% of 2 M aqueous NaOAc and 1% of TFA. Analysis was performed using either a Scan-RAM radio-TLC detector (LabLogic Systems Ltd., Sheffield, United Kingdom) or a CR 35 BIO phosphorimager (Duerr Medical GmbH, Bietigheim-Bissingen, Germany).
For in vivo μmetabolism studies, 8-12 MBq (<0.6 nmol) of the respective ^18F-labeled ligand (rhPSMA-7.1-7.4) was injected into the tail vein of female healthy CB17-SCID mice (n=4). Mice were left under anesthesia for 30 min and the urine was collected using a bladder catheter. Urine samples were pooled and centrifuged for 5 min at 9000 rpm to remove suspended solids. The supernatant was directly used for radio-HPLC analysis with the above mentioned conditions. […]

| Compound | Biodistribution adrenals [1] [% ID/g] | Biodistribution blood [1] [% ID/g] | Biodistribution bone [1] [% ID/g] | Biodistribution heart [1] [% ID/g] | Biodistribution intestine [1] [% ID/g] | Biodistribution kidneys [1] [% ID/g] | Biodistribution liver [1] [% ID/g] | Biodistribution lung [1] [% ID/g] | Biodistribution muscle [1] [% ID/g] | Biodistribution pancreas [1] [% ID/g] | Biodistribution spleen [1] [% ID/g] | Biodistribution stomach [1] [% ID/g] | Biodistribution tumor [1] [% ID/g] | [F-18]rhPSMA7.3 share of radioactivity in urine ([2]; after addition of 5 nmol [F-19]rhPSMA7-3, room temperature) [%] | [F-18]rhPSMA7.3 share of radioactivity in urine ([2]; radioactive urine before addition of cold [F-19]rhPSMA7.3) [%] |
| --- | --- | --- | --- | --- | --- | --- | --- | --- | --- | --- | --- | --- | --- | --- | --- |
| [^19F][^natGa]D/L-Dap-R/S-DOTAGA-rhPSMA7 [rhPSMA7-rac] | 3.0 ± 0.45 | 1.1 ± 0.03 | 0.91 ± 0.11 | 0.69 ± 0.07 | 0.60 ± 0.27 | 71.3 ± 13.3 | 0.67 ± 0.07 | 1.4 ± 0.17 | 0.36 ± 0.06 | 0.60 ± 0.10 | 11.1 ± 2.3 | 0.49 ± 0.07 | 10.4 ± 0.67 |  |  |
| CC(C)(C)[Si](F)(c1ccc(C(=O)NC[C@@H](NC(=O)CC[C@@H](C(=O)O)N2CCN(CC(=O)O)CCN(CC(=O)O)CCN(CC(=O)O)CC2)C(=O)N[C@H](CCCCNC(=O)CCC(=O)NCCC[C@@H](NC(=O)CC[C@H](NC(=O)N[C@@H](CCC(=O)O)C(=O)O)C(=O)O)C(=O)O)C(=O)O)cc1)C(C)(C)C [rhPSMA7.3, [^19F][^natGa]D-Dap-S-DOTAGA-rhPSMA7, metal not drawn] |  |  |  |  |  |  |  |  |  |  |  |  |  | 85.8 | 79.4 |

— US12377176B2, “Cancer diagnostic imaging agents” (Technische Universität München, priority 2019, dated 2025)
